# Patent US9359405B2, “Antagonists of the interleukin-1 receptor” (Phlogo ApS, priority 2011, dated 2016)
# No end group written: not given here.
# B1: SIL1RI: soluble IL1 receptor type 1 protein, positive control (protein)
# chain: LEADKCKEREEKIILVSSANEIDVRPCPLNPNEHKGTITWYKDDSKTPVSTEQASRIHQHKEKLWFVPAKVEDSGHYYCVVRNSSYCLRIKISAKFVENEPNLCYNAQAIFKQKLPVAGDGGLVCPYMEFFKNENNELPKLQWYKDCKPLLLDNIHFSGVKDRLIVMNVAEKHRGNYTCHASYTYLGKQYPITRVIEFITLEENKPTRPVIVSPANETMEVDLGSQIQLICNVTGQLSDIAYWKWNGSVIDEDDPVLGEDYYSVENPANKRRSTLITVLNISEIESRFYKHPFTCFAKNTHGIDAAYIQLIYPVTNFQK
# How the values were obtained:
# [1] = Peptide solubility on reconstitution; format: physicochemical
# Text: Upon receiving the peptides from the synthesizing company (as powder), they were reconstituted in water, in PBS or in medium. Thus it is immediately apparent whether a peptide is soluble or not.
# [2] = system: NF-κB activated by IL1β (IL1RI signaling), HEK-Blue IL1β cells; experiment: IL1RI signaling assay, HEK-Blue IL1β reporter cells (NF-κB/SEAP); format: cell-based; conditions: IL1β 1.2 μM
# Text: (§1) IL1RI signaling assay: Commercially available Blue™ Cytokine Reporter Cell technology from InvivoGen (Denmark distributor: Sigma-Aldrich Denmark) was used. It is represented by an expanding family of engineered cell lines designed to provide a simple, rapid, and reliable method of monitoring the activation of signaling pathways induced by key cytokines. HEK-Blue™ IL1β cells are specifically engineered to selectively respond to IL1β, and they feature the secreted embryonic alkaline phosphatase (SEAP) reporter gene under the control of an NF-κB-inducible promoter. […] A target/receptor-specificity of the Ilantafin effect was verified employing HEK-Blue™ IL6 cells.
# [3] = system: IL1β-activated AMJ2-C8 macrophage cells; experiment: TNFα secretion by IL1β-activated macrophages (L929/MTS bioassay); format: cell-based; conditions: IL1β 1.2 μM
# Procedure: The Ilantafin peptide or IL1Ra or IL1RI was added to cultures of macrophages (AMJ2-C8) seeded in 6-well multi-dishes (Nunc) (2.5×10^5 cells/well). After 24 h of incubation at 37° C., IL1β (1.2 μM) was added to the cultures to activate the macrophages. L929 cells were seeded in a 96-well plate at a density of 2×10^5 cells/mL. Both cell cultures were incubated for 24 h at 37° C. Conditioned medium from the macrophage cultures was collected and added to the fibroblast cultures together with 0.6 μg/well actinomycin. D (Sigma-Aldrich). Finally, after 24 h of incubation at 37° C., 20 μl of 3-(4,5-dimethylthiazol-2-yl)-5-(3-carboxymethoxyphenyl)-2-(4-sulfophenyl)-2H-tetrazolium (MTS) (Promega, Madison, Wis., USA) was added to each well and the plates were incubated protected from light, at 37° C., for ˜45 min and the optical density was measured at 490 nm in a Sunrise absorbance reader (Tecan, Männedorf, Switzerland). In order to calculate the amount of TNF-α in the conditioned medium, a standard curve was obtained by treating fibroblasts with different concentrations of TNF-α (R&D systems, Minneapolis, Minn., USA).
# [4] = system: cerebellar granule neurons; experiment: Neurite outgrowth in primary cerebellar granule neurons; format: cell-based, rat; conditions: for neurite outgrowth: 24 h, primary cerebellar neurons
# Procedure: Cerebellar granular neurons (CGN) were prepared from 3 or 7 postnatal (P) day Wistar rats (Charles River, Sulzfeld, Germany or Taconic, Ejby, Denmark). Cerebella were cleared of meninges and blood vessels, roughly homogenized by chopping, and trypsinized with trypsin from Sigma-Aldrich (Brøndby, Denmark). The neurons were washed in the presence of DNAse 1 and soybean trypsin inhibitor (Sigma-Aldrich), and cellular debris was pelleted by centrifugation before plating. CGNs were plated at a density of 10,000 cells/well onto uncoated eight-well Lab-Tek chamber slides (NUNC, Slangerup, Denmark) in Neurobasal-A medium supplemented with 0.4% (w/v) BSA. Peptides or proteins at various concentrations were added to the medium immediately after plating, and cells were maintained at 37° C. and 5% CO2 for 24 h. Cultures then were fixed, blocked and incubated with polyclonal rabbit antibody against rat GAP-43 (Chemicon, Temecula, Calif., USA) followed by incubation with secondary Alexa Fluor488 goat anti-rabbit antibody (Molecular Probes, Eugene, Oreg., USA) as previously described (Neiiendam et al., 2004). The immunostained cultures were all recorded by computer-assisted fluorescence microscopy using a Nikon Diaphot inverted microscope (Nikon, Japan) equipped with a Nikon Plane 20× objective. Images were captured with a charge-coupled device video camera (Grundig Electronics, Nurnberg, Germany) using the software package Prima developed at the Protein Laboratory (University of Copenhagen, Copenhagen, Denmark). The length of neuronal processes per cell was estimated using the software package Process Length developed at the Protein Laboratory (Ronn et al. 2000). For estimation of neurite outgrowth, at least 200±20 cells were processed for each group in each individual experiment.
# [5] = target: T1, IL1RI (Homo sapiens, UniProt P14778); experiment: ka (M^-1s^-1)
# T1 construct: The recombinant protein comprising the whole extracellular part of IIL1RI was immobilised on the surface of a CM5 sensor chip
# Text: (§2) Table printed on a drawing sheet, Figure 3
# Head of the field: ka (M^-1s^-1)
# (§3) First copying reader's note: Rate and affinity constants for binding to IL1RI; each cell holds the value with its ± error, and Ilantafin is a peptide while ILRa and IL1β are proteins.
# [6] = target: T1, IL1RI; experiment: Kb (s^-1)
# Text: as §2
# Head of the field: Kb (s^-1)
# as §3
# [7] = system: cerebellar granule neurons; experiment: Survival assay, cerebellar granule neurons, low-potassium apoptosis; format: cell-based, rat; conditions: 5 mM KCl, 2 days
# Procedure: Survival assay: Primary cultures of CGN were plated at a density of 100,000 cells/cm2 on poly-L-lysine coated 8-well permanox slides in Neurobasal-A medium (Gibco BRL) supplemented with 2% (v/v) B27, 0.5% (v/v) glutamax, 100 units/mL penicillin, 100 µg/mL streptomycin and KCl, making the final concentration of KCl in the medium 40 mM. 24 hours after plating, cytosine-b-D-arabinofuranoside (Ara-C; Sigma-Aldrich) was added to a final concentration of 10 μM to avoid proliferation of glial cells, after which the neurons were allowed to differentiate for a further 6 days at 37° C. Apoptotic cell death was induced by washing twice and changing the medium to Basal Medium Eagle (BME; Gibco BRL) supplemented with 1% (v/v) glutamine, 100 U/mL penicillin and 100 µg/mL streptomycin, 3.5 g D-glucose/L and 1% (v/v) sodium pyruvate (Gibco BRL) together with various concentrations of peptide. Thereby the concentration of potassium in the cultures was reduced to 5 mM KCl (Ditlevsen et al., 2003). Two days after induction of apoptosis, the cells were fixed with 4% (v/v) formaldehyde and stained with Hoechst 33258 as described for the survival assay employing hippocampal neurons.
# [8] = system: STAT signalling induced by IL6, HEK-Blue IL6 cells; experiment: Target specificity, HEK-Blue IL6 cells; format: cell-based
# Text: as §1
# [9] = system: collagen-induced arthritis (CIA); experiment: Collagen-induced arthritis in rats, treatment from day 15 (Example 7); format: in vivo, rat; conditions: 3.3 and 10 mg/kg s.c. daily from day 15
# Text: Rheumatoid arthritis is a chronic, inflammatory, systemic autoimmune disease that affects about 1% of the general population in Western countries. Collagen-induced arthritis (CIA) in rats is a widely employed animal model for the screening of anti-inflammatory compounds. Collagen bovine, type II (CII, Cat.no.20021, Lot 090209, Chondrex, USA), Complete Freund's Adjuvant, containing 0.1% of Mycobacterium tuberculosis (CFA, Cat.no. F5581, Lot 049K8700, Sigma-Aldrich), Incomplete Freund's Adjuvant (IFA, Cat.no. F5506, Lot 058K8702, Sigma). PBS (Panum Institute, Copenhagen University). Isofluran (Baxter). Animals were immunized twice: on day 0 (CII+CFA) and on day 10 (CII+IFA, booster). On day 15 the mean clinical score reached a value of 5.0 and all animals were divided into 3 groups so that the severity of disease (mean clinical score) in all groups was almost equal. The peptide (two doses, 3.3 and 10 mg/kg) was administered subcutaneously daily starting at day 15. The clinical evaluation of the arthritis severity was assessed using the following grading system: O— no redness or swelling in foot and palm; 1—slight swelling or redness in metatarsophalangeal joint and ankle joint foot or palm; 2—progressed swelling/inflammation and redness from ankle to mid foot or in entire palm; 3—swelling/inflammation of entire foot except toes; 4—swelling and inflammation of entire foot including toes.
molecule,measurement,setting,value
AGYLQGPNVN-OH [Ilantafin-2],solubility in PBS or medium,[1],not soluble in PBS or medium
same,solubility in water,[1],soluble in water
"AQMKSSKRGS (listed as Homo sapiens) [Ilantafin rev-d, reference compound]",inhibition of NF-κB activation induced by IL1β,[2],"neither two peptides with scrambled sequences, Ilantafin scr-d1 (KQSAGKRSMS) (SEQ ID NO:39), Ilantafin scr-d2 (KASQKGMSRS) (SEQ ID NO:40), nor a peptide with the reverseequence, Ilantafin rev-d (AQMKSSKRGS) (SEQ ID NO:41) inhibit the activation of NF-KB induced by IL1β"
"EGVMVTKFYFQED-OH [Ilantafin-5, EGVMVTKFYFQED]",solubility,[1],completely insoluble when produced
IL1Ra: IL-1 receptor antagonist protein; commercial IL1Ra used as positive control,inhibition of TNFα secretion by IL1β-activated macrophages,[3],also inhibit macrophage activation
same,neurite outgrowth,[4],induce neurite outgrowth in primary cerebellar neurons in a dose-dependent manner
same,inhibition of NF-κB activation induced by IL1β,[2],inhibitory effect
"IL1β: Interleukin-1 beta, pro-inflammatory cytokine, agonist of the IL1 receptor [listing 1 of 2 here]",ka (M^-1s^-1),[5],1.84 ± 0.20 x 10^5 M^-1s^-1
same,Kb (s^-1),[6],2.69 ± 0.58 x 10^-3 s^-1
"IL1β: Interleukin-1 beta, pro-inflammatory cytokine, agonist of the IL1 receptor [listing 2 of 2 here]",neurite outgrowth,[4],does not affect neuritogenesis
same,effect on Ilantafin- and IL1Ra-induced neurite outgrowth,[4]; co-treatment,inhibits Ilantafin- and IL1Ra induced neurite outgrowth
"KASQKGMSRS (listed as Homo sapiens) [Ilantafin scr-d2, reference compound]",inhibition of NF-κB activation induced by IL1β,[2],"neither two peptides with scrambled sequences, Ilantafin scr-d1 (KQSAGKRSMS) (SEQ ID NO:39), Ilantafin scr-d2 (KASQKGMSRS) (SEQ ID NO:40), nor a peptide with the reverseequence, Ilantafin rev-d (AQMKSSKRGS) (SEQ ID NO:41) inhibit the activation of NF-KB induced by IL1β"
"KQSAGKRSMS (listed as Homo sapiens) [Ilantafin scr-d1, reference compound]",inhibition of NF-κB activation induced by IL1β,[2],"neither two peptides with scrambled sequences, Ilantafin scr-d1 (KQSAGKRSMS) (SEQ ID NO:39), Ilantafin scr-d2 (KASQKGMSRS) (SEQ ID NO:40), nor a peptide with the reverseequence, Ilantafin rev-d (AQMKSSKRGS) (SEQ ID NO:41) inhibit the activation of NF-KB induced by IL1β"
NQKTFYLRNNQL-OH [Ilantafin-6],solubility in PBS or medium,[1],not soluble in PBS or medium
same,solubility in water,[1],soluble in water
NQLVAGYLQGPNVN-OH [Ilantafin-3],solubility in water,[1],not soluble in water
SGRKSSKMQA (also: tetrameric dendrimer; listed as Homo sapiens) [Ilantafin-d],neuronal survival / cell death (apoptosis) induced by lowering potassium,[7],promotes survival of cerebellar granule neurons
same,inhibition of TNFα secretion by IL1β-activated macrophages,[3],inhibitory effect
same,inhibition of NF-κB activation induced by IL1β,[2],inhibitory effect
same,effect on STAT signalling induced by IL6,[8],does not affect the activation of STAT signalling induced by IL6
same,clinical manifestations (clinical score) of CIA,[9],abrogated an increase in clinical manifestations of the disease
SGRKSSKMQA-OH [Ilantafin-m],neuronal survival / cell death (apoptosis) induced by lowering potassium,[7],promotes survival of cerebellar granule neurons
same,inhibition of TNFα secretion by IL1β-activated macrophages,[3],inhibitory effect
same,inhibition of NF-κB activation induced by IL1β,[2],inhibitory effect
"VTKFYFQED-OH [Ilantafin-4, VTKFYFQED]",solubility in water,[1],not soluble in water
B1,inhibition of TNFα secretion by IL1β-activated macrophages,[3],also inhibit macrophage activation
same,neurite outgrowth,[4],induce neurite outgrowth in primary cerebellar neurons in a dose-dependent manner
same,inhibition of NF-κB activation induced by IL1β,[2],inhibitory effect
